Data on five compounds can be found in patent US11208478B2, “Methods of detecting and treating a tumor expressing pT346 PDK1” (The Wistar Institute of Anatomy and Biology, priority 2016, dated 2021).

Assay type in all cases: cell-based, Human
One test relates to mitochondrial Akt. Briefly: Akt recruitment to mitochondria in hypoxia, subcellular fractions by Western blotting. To be noted: PC3 cells, 17-AAG 5 μM for 6 hr, NAC 1 mM, MitoTempo 25 μM. How it is done: FIG. 1 illustrates mitochondrial phosphoproteome in hypoxia. A: Phosphoproteome of prostate adenocarcinoma PC3 cells in hypoxia versus normoxia. Identified phosphosites met a minimum MaxQuant localization probability of 0.75 and a score difference of 5. Fold changes were calculated from the normalized Heavy/Light SILAC ratio. Six Akt target proteins showing increased phosphorylation in hypoxia are indicated. […] B: Ingenuity pathway analysis of mitochondrial phospho- and global proteome in hypoxia. […] D: PC3 cells in normoxia (N) or hypoxia (H) were fractionated in cytosol (Cyto) or mitochondrial (Mito) extracts and analyzed by Western blotting. pAkt, phosphorylated Akt (Ser473). TCE, total cell extracts. E: PC3 cells in hypoxia (H) were exposed to reoxygenation (O2) for the indicated time intervals and analyzed by Western blotting. N, normoxia. F: The indicated subcellular fractions isolated from normoxic (N) or hypoxic (H) PC3 cells were analyzed with an antibody to the Akt consensus phosphorylation site RxRxxS/T (Akt cons Ab) by Western blotting. Mito Sup, supernatant of mitochondrial extracts after preclearing with Akt cons Ab. G: PC3 cells in normoxia (N) or hypoxia (H) were treated with vehicle (Veh) or Hsp90 small molecule inhibitor 17-AAG (5 μM for 6 hr), and cytosolic (Cyto) or mitochondrial (Mito) extracts were analyzed by Western blotting. H: PC3 cells in normoxia (N) or hypoxia (H) were treated with vehicle (Veh), the antioxidant N-acetyl cysteine (NAC, 1 mM) or mitochondria-specific ROS scavenger, MitoTempo (MT, 25 μM), and subcellular fractions were analyzed by Western blotting. See also FIG. 9.
Human prostate adenocarcinoma PC3 and DU145, glioblastoma (GBM) LN229, and breast adenocarcinoma MCF-7 or MDA-231 cells were obtained from the American Type Culture Collection (ATCC, Manassas, Va.), and maintained in culture according to the supplier's specifications. Hypoxic treatment was carried out using an enclosed chamber (BioSpherix) flushed with a nitrogen and CO2 gas. […]
A general note: In western blotting, separated proteins are transferred to a membrane and probed.

The subject of a further test is PC3 cells. Briefly: Cell cycle: DNA content by propidium iodide staining and flow cytometry. As to conditions: hypoxia, DCA 10 mM, MK2206 5 μM. From the text: FIG. 13, related to FIG. 5, illustrates additional data regarding mitochondrial Akt signaling supports tumor growth in hypoxia in vivo. A: Human intracranial GBM samples (U251 cells) grown in immunocompromised mice were harvested at the indicated time intervals after stereotactic injection, and the number of mitotic cells was quantified. HPF, high-power microscopy field (n=6-7). Mean±SEM. *, p=0.01. B: Human intracranial GBM samples as in (A) were harvested at day 20 after stereotactic injection of U251 cells in immunocompromised mice, and analyzed for expression of HIF1α, phosphorylated PDK1 (pT346 Ab) or phosphorylated PDHE1α by immunohistochemistry. H&E, hematoxylin and eosin. Yellow lines were used to delineate the tumor mass within mice brain. Scale bar, 100 μm. […] C: Quantification of mitotic cells expressing phosphorylated PDK1 (pT346 Ab) in intracranial GBM harvested from immunocompromised mice at the indicated time intervals (n=5-7). […] D: Intracranial GBM samples as in (A) were analyzed for correlation between HIF1α luciferase activity and the number of PDK1-phosphorylated mitotic cells (pT346 Ab). […], 95% C.I.=0.1-0.9; p=0.02. […] E: PC3 cells in normoxia (N) or hypoxia (H) were treated with vehicle (Veh) or small molecule antagonists of PDK1 (DCA, 10 mM) or Akt (MK2206, 5 μM) and analyzed for DNA content by propidium iodide staining and flow cytometry. […]
In general terms: A flow cytometer gives signals particle by particle.

The test system of the next test is cleaved caspase 3. Briefly: Cleaved caspase 3 by Western blotting. As to conditions: PC3 cells, hypoxia; MK2206 1 μM, PX-866 10 μM. The method, then:
FIG. 6 illustrates mitochondrial Akt regulation of stress signaling in hypoxia. A and B: PC3 cells in normoxia (N) or hypoxia (H) were treated with vehicle (Veh) or MK2206 (1 μM) (A) or transduced with pLKO or PDK1-directed shRNA (B) and analyzed for ROS production by CELLROX Green staining and flow cytometry. Upper panels, representative tracings. Bottom panels, quantification of ROS production under the various conditions tested (n=2). Mean±SD for both datasets. *, p=0.01-0.02; **, p=0.004; ns, not significant. C: The experimental conditions are as in (A) and treated cells were analyzed for cell viability by direct cell counting relative to control (n=3). Mean±SEM. ***, p<0.0001. D: PC3 cells in normoxia (N) or hypoxia (H) were incubated with vehicle (Veh) or small molecule inhibitors of Akt (MK2206, 1 μM) or PI3K (PX-866, 10 μM) and analyzed by Western blotting. E: PC3 cells stably silenced for PDK1 were reconstituted with vector, WT PDK1 or T346A PDK1 mutant and analyzed for cell viability by direct cell counting relative to control (n=3). Mean±SEM. ***, p=0.0002. F and G: PC3 cells in normoxia (N) or hypoxia (H) were transduced with pLKO or PDK1-directed shRNA (F) or control siRNA (Ctrl) or Akt1- or Akt2-directed siRNA (G), and analyzed by Western blotting. […] For all panels, data were analyzed using the two-sided unpaired Student's t test. […]

Each structure is given as a SMILES string.

For the compound `C=CCNC1=C2C[C@@H](C)C[C@H](OC)[C@H](O)[C@@H](C)/C=C(\C)[C@H](OC(N)=O)[C@@H](OC)/C=C\C=C(/C)C(=O)NC(=CC1=O)C2=O` [17-AAG, 17-allylaminogeldanamycin], the “accumulation / recruitment of Akt to mitochondria” value (“accumulation / recruitment of Akt” for short) with mitochondrial Akt is on record as “prevented the accumulation of mitochondrial Akt”.

On to `O=C([O-])C(Cl)Cl.[Na+]` [DCA, sodium dichloroacetate], for which, in the test with PC3 cells, the S-phase progression result is “suppressed S-phase progression” and the “population of tumor cells in G1/sub-G1 phase” value is recorded as “increased”. Consider `CC1(C)CC(NC(=O)C[P+](c2ccccc2)(c2ccccc2)c2ccccc2)CC(C)(C)N1[O]` [MitoTempo], for which, in the test with mitochondrial Akt, the “accumulation / recruitment of Akt” value is “inhibited Akt recruitment to mitochondria”. With `CC(=O)N[C@@H](CS)C(=O)O` [NAC, N-acetyl cysteine], the “accumulation / recruitment of Akt” value with mitochondrial Akt was “no effect”.

Turning to `C=CCN(/C=C1/C(=O)O[C@H](COC)[C@@]2(C)C1=C(O)C(=O)C1=C2[C@H](OC(C)=O)C[C@]2(C)C(=O)CC[C@@H]12)CC=C` [PX-866], the “cleaved caspase 3 (marker of apoptosis)” value in the test on cleaved caspase 3 was “did not result in caspase activation”.
